Consider one molecule from EP4635969A1, “NOVEL GLUCOCORTICOID, METHOD FOR PREPARING SAME, AND USE THEREOF” (Tianjin Pharmaceutical Biotechnology Co., Ltd., priority 2022, dated 2024).

The test system of series [1] is intraocular pressure of guinea pigs. Briefly: Adverse reactions of continuous ocular administration: intraocular pressure. Type of series: in vivo. In short, it runs like this: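 Guinea pigs (300-350 g, both sexes) dosed bilaterally with 5 mg/5 mL ophthalmic suspensions, saline as blank; intraocular pressure measured before dosing and on days 7, 14, 21 and 28.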
Series [2] addresses T1, mineralocorticoid receptor (MR) (Homo sapiens, UniProt P08235).
T1 sequence (P08235 726-984): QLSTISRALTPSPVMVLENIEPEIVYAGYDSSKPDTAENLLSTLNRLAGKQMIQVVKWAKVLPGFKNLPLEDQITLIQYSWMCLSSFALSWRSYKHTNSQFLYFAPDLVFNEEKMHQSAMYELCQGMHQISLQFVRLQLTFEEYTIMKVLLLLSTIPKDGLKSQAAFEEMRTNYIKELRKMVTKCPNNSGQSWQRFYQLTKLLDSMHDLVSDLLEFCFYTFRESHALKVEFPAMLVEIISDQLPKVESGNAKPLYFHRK
Briefly: Assay for agonist activity on mineralocorticoid receptor (luciferase reporter, HEK293 cells transfected with pBIND-MR plasmid). Format: cell-based. The settings on record: MR/GR and PR/GR, same experimental conditions. The method in brief:
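HEK293 cells transiently transfected with pBIND-MR or pBIND-PR, seeded in phenol red-free DMEM with 5% charcoal-stripped serum. Compounds tested as 12-point 4-fold dilutions from 50 µM in duplicate, 0.1% DMSO blank. Luciferase luminescence read, EC50 by nonlinear fit.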

For series [3], the system named is dry eye syndrome model New Zealand rabbits. Briefly: Dry eye syndrome experiment (benzalkonium chloride model): tear film break-up time. The note with it: compared with the model group. Type of series: in vivo, male New Zealand White rabbits.
Procedure: Positive control drug: Fluorometholone Eye Drops (specification: 5 mL/5 mg; Santen Pharmaceutical (CHINA) Co., Ltd.; Lot No.: 1FM6625) was used as the positive control drug and stored at room temperature protected from light until use.
Thirty male New Zealand White rabbits (conventional grade) were prepared. Six rabbits were randomly selected as the blank control group, and the remaining animals were administered 0.1% benzalkonium chloride to the left eye twice daily (morning and evening) , 10 µL/animal each time. On day 6 of modeling, tear secretion was measured using phenol red cotton threads to determine whether the model was successfully established. […] During the administration, all animals except the blank control group were administered 10 µL of 0.1% benzalkonium chloride to the left eye once daily to maintain dry eye symptoms..
• Test time: D3, D7, D15; • Test animals: All animals were tested before grouping; all enrolled surviving animals were tested after administration; • Test method: 1% Fluorescein sodium was dropped onto the inner side of the rabbit's lower eyelid, 10 µL/animal. The rabbit's eyes were closed and gently massaged to evenly distribute the fluorescein sodium on the eye surface. The rabbit's eyes were then sequentially placed under a slit lamp. The tear film break-up time was observed and recorded as the time from eye opening to the appearance of the first dark spot. If no dark spot appeared, the time was calculated as 60 seconds.
The normality and homogeneity of variance were tested by Levene's test. If there was no statistical significance (P > 0.05), one-way analysis of variance (ANOVA) was used for statistical analysis. If ANOVA was statistically significant (P ≤ 0.05), LSD test (parametric method) was used for comparative analysis. If the variance was heterogeneous (P ≤ 0.05), Kruskal-Wallis test was used. If the Kruskal-Wallis test was statistically significant (P ≤ 0.05), Dunnett's test (nonparametric method) was used for comparative analysis.
Series [4] addresses T2, glucocorticoid receptor (GR) (Homo sapiens, UniProt P04150).
T2 sequence (P04150 521-777): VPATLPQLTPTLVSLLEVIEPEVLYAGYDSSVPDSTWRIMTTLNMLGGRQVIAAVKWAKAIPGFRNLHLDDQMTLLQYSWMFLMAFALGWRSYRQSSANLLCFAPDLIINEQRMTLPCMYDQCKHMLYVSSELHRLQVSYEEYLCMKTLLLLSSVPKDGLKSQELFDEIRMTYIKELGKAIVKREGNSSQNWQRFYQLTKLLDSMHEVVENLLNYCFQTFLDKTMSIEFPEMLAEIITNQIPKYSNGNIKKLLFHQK
Briefly: Assay for agonist activity on glucocorticoid receptor (luciferase reporter, HEK293 cells transfected with pBIND-GR plasmid). The note with it: GR agonist EC50 (nM), HEK293 cells transfected with pBIND-GR, luciferase signal. Type of series: cell-based. The method in brief: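 HEK293 cells transfected with pBIND-GR, seeded in phenol red-free DMEM with 5% charcoal-stripped serum, then exposed to compounds in a 10-point, 4-fold dilution series from 10 µM, in duplicate. Luciferase luminescence read after incubation; EC50 from nonlinear fit. Vehicle blank: 0.1% DMSO.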

Structures are written as SMILES.

`C[C@]12C=CC(=O)C=C1[C@@H](F)C[C@H]1[C@@H]3C[C@H]4OC(c5ccc(CSC6CCOC6=O)nc5)O[C@@]4(C(=O)CO)[C@@]3(C)C[C@H](O)[C@@]12F` (stereo partly drawn) [Compound 46, (25,6aS,6bR,78,8a8,8bS,11aR,12a8,12b8S)-2,6b-Difluoro-7-hydroxy-8b-(2-hydroxyacetyl)-6a,8a-dimethyl-10-(6-(((2-oxotetrahydrofuran-3-yl)thio)methyl)pyridin-3-yl)-1,2,6a,6b,7,8,8a,8b,11a,12, 12a,12b-dodecahydro-4H-naphtho[2',1':4,5]indeno[1,2-d][1,3]dioxol-4-one]: the “intraocular pressure after continuous ocular administration” value in series [1] is “no abnormal intraocular pressure observed”. The target selectivity result in series [2] is on record as “target selectivity comparable to that of compound 23”. The “tear film break-up time” value in series [3] is listed as “significantly increased the tear film break-up time”. Besides, the response in series [4] was half-maximal at 0.23 nM (EC50).
